Results on five molecules are retold here after patent US9321740B2, “Tetrazole compounds and methods of making and using same” (Zafgen, Inc., priority 2011, dated 2016).

The target of this assay is T1, recombinant human MetAP2 (Homo sapiens, UniProt P50579).
T1 construct: Flag; made in house; host or cells: Sf9 insect cells
T1 sequence (P50579 whole entry): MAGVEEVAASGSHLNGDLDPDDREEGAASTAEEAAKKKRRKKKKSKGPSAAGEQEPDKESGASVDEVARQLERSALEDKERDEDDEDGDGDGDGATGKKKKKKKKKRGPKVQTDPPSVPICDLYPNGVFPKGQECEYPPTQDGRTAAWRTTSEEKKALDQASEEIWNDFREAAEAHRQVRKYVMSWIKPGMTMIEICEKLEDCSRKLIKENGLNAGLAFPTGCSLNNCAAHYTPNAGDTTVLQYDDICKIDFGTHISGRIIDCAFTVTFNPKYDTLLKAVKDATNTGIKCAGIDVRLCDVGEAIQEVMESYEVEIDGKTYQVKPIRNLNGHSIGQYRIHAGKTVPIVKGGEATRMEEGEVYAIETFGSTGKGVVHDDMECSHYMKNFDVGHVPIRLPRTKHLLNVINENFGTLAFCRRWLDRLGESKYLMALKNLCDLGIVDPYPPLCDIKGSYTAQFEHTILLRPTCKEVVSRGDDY
Kind of assay: Inhibition of recombinant human MetAP2 activity (MAS substrate, amino acid oxidase/Amplex red fluorescence). In kind it is biochemical. The following applies: manganese enzyme, 30 minutes at 25° C., pH 7.5, 0.75 mM MAS substrate, 1% DMSO; read-out: Activity (MetAP2 IC50 class). On the procedure: Compounds are tested for their capacity to inhibit recombinant human MetAP2 activity using the following assay.
Human recombinant Flag-MetAP2 expressed in Sf9 cells followed by affinity purification and EDTA treatment to remove endogenous active site cation was dialysed against MnCl2 to produce the manganese enzyme used in the assay. The assay was carried out for 30 minutes at 25° C. in 50 mM HEPES buffer containing 100 mM NaCl, pH 7.5 the presence of 0.75 mM Methionine-Alanine-Serine (MAS) substrate and 50 μg/mL amino acid oxidase using a dilution of purified MetAP2 giving approximately 50,000 RFU control activity. Cleavage of the substrate by MetAP2 and oxidation of free methionine by amino acid oxidase was detected and quantified using fluorescence generated by Amplex red (10-acetyl-3,7-dihydroxyphenoxazine) in combination with horseradish peroxidase which detects H2O2 released during the oxidation step. The fluorescent signal was detected using a multiwell fluorimeter. Compounds were diluted in DMSO prior to addition to assay buffer, the final DMSO concentration in the assay being 1%.
The IC50 is defined as the concentration at which a given compound achieves 50% inhibition of control. IC50 values are calculated using the XLfit software package (version 2.0.5).
For the molecule `O=S(=O)(Nc1cccc(Br)c1-c1nnn[nH]1)c1ccccc1` [N-[3-Bromo-2-(1H-tetrazol-5-yl)-phenyl]-benzenesulfonamide], the IC50 is > 1 µM.
With `Cc1cccc(NS(=O)(=O)c2ccccc2)c1-c1nnn[nH]1` [N-[3-Methyl-2-(1H-tetrazol-5-yl)-phenyl]-benzenesulfonamide], the IC50 was > 1 µM.
For the molecule `O=S(=O)(Nc1cccc(C2CC2)c1-c1nnn[nH]1)c1ccccc1` [N-[3-Cyclopropyl-2-(1H-tetrazol-5-yl)-phenyl]-benzenesulfonamide], the half-maximal inhibitory concentration (IC50) is < 1 µM.
With `O=S(=O)(Nc1ccc2c(c1-c1nnn[nH]1)CCCC2)c1ccccc1` [N-[1-(1H-Tetrazol-5-yl)-5,6,7,8-tetrahydronaphthalen-2-yl]-benzenesulfonamide], the IC50 was > 1 µM.
Turning to `COc1cccc(NS(=O)(=O)c2ccccc2)c1-c1nnn[nH]1` [N-[3-Methoxy-2-(1H-tetrazol-5-yl)-phenyl]-benzenesulfonamide], the IC50 was < 1 µM.
